Among the test systems are HCT-116 colon; SF-295 CNS; HCT-15 colon; NCI-H226 lung; CAKI-1 renal; MDA-MB-231 breast; TK-10 renal; SF-268 CNS; MOLT-4 leukemia; U251 CNS; MDA-MB-435; 786-0 renal; OVCAR-5 ovarian; NCI-H522 lung; SK-MEL-2 melanoma; K-562 leukemia; SNB-19 CNS; PC-3 prostate; BT-549 breast.
Assay in all cases: NCI-60 cell line screen, 48 h

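Where inhibition never reached the appropriate level, the endpoint shown equals the highest concentration tested. Otherwise, values were interpolated linearly from a five-concentration, 48-hour dose response in 96-well plates. TGI is the concentration that stops growth completely.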

We go through nine compounds from PubChem BioAssay (NCI).

Regarding `CCCCc1ccc(C#CC#Cc2ccc(CCCC)s2)s1`, the TGI in the test on HCT-116 colon, in the test on SF-295 CNS, with HCT-15 colon, with NCI-H226 lung, with CAKI-1 renal and in the test on MDA-MB-231 breast was above 100 µM each time. Further, the TGI in the test on TK-10 renal, in the test with SF-268 CNS, with MOLT-4 leukemia, in the test on U251 CNS, in the test on MDA-MB-435 and in the test on 786-0 renal was above 100 µM in each case. Besides, the TGI in the test on OVCAR-5 ovarian and with NCI-H522 lung was above 100 µM throughout.
`NC(=O)C(=CNC(=S)Nc1cccc(C(F)(F)F)c1)C(N)=O`: the TGI with HCT-116 colon, with SF-295 CNS, in the test with NCI-H226 lung, in the test on CAKI-1 renal, with MDA-MB-231 breast and in the test on TK-10 renal was above 100 µM each time. In addition, the TGI with SF-268 CNS, in the test with SK-MEL-2 melanoma, in the test with MOLT-4 leukemia, with U251 CNS, in the test on MDA-MB-435 and in the test with 786-0 renal was above 100 µM in each case. Moreover, the TGI in the test on OVCAR-5 ovarian, with K-562 leukemia, with SNB-19 CNS and in the test with PC-3 prostate was above 100 µM each time.
Take `C=CC1(C)OC2(CCN(C(=O)OCC)CC2)OC1C` (configuration not stated): the TGI with SF-295 CNS, with HCT-15 colon, in the test with NCI-H226 lung, in the test with CAKI-1 renal, in the test with MDA-MB-231 breast and with TK-10 renal was above 100 µM throughout. Moreover, the TGI with SF-268 CNS, in the test on SK-MEL-2 melanoma, with MOLT-4 leukemia, in the test with U251 CNS, with MDA-MB-435 and in the test with 786-0 renal was above 100 µM in each case. Also, the TGI with OVCAR-5 ovarian, in the test with K-562 leukemia, with SNB-19 CNS, with NCI-H522 lung and with PC-3 prostate was above 100 µM in each case.
As to `CN(C(=O)c1ccco1)C(=S)N1CCN(c2ccccn2)CC1`, the TGI in the test with HCT-116 colon, in the test with SF-295 CNS, in the test with HCT-15 colon, in the test on NCI-H226 lung, in the test on CAKI-1 renal and in the test with TK-10 renal was above 100 µM throughout. The TGI in the test with SF-268 CNS, in the test with SK-MEL-2 melanoma, in the test with MOLT-4 leukemia, with U251 CNS, in the test on 786-0 renal and with OVCAR-5 ovarian was above 100 µM in each case. In addition, the TGI in the test with K-562 leukemia, in the test on SNB-19 CNS and with NCI-H522 lung was above 100 µM each time.
`CCCNC(=O)N(C)C(=O)N1N=C(c2ccccc2)C1c1ccccc1` (configuration not stated): the TGI in the test on HCT-116 colon, with SF-295 CNS, in the test with HCT-15 colon, in the test on NCI-H226 lung, with CAKI-1 renal and in the test on MDA-MB-231 breast was above 100 µM each time. The TGI with TK-10 renal, in the test with SK-MEL-2 melanoma, with MOLT-4 leukemia, in the test with U251 CNS, in the test with MDA-MB-435 and in the test with 786-0 renal was above 100 µM throughout. For the same compound, the TGI with K-562 leukemia, in the test on SNB-19 CNS, in the test on NCI-H522 lung and in the test on PC-3 prostate was above 100 µM in each case.
`O=C1c2ccccc2C(=O)c2c(NCCCN3CCOCC3)ccc(NCCCN3CCOCC3)c21`: the TGI is 10.4 µM in the test on HCT-116 colon; 11.4 µM in the test with SF-295 CNS; above 100 µM in the test with HCT-15 colon; 31.5 µM in the test with NCI-H226 lung; 32 µM in the test on CAKI-1 renal; 13.8 µM in the test with MDA-MB-231 breast. The TGI is 39.1 µM in the test on TK-10 renal; 20.9 µM with SF-268 CNS; 25.5 µM with SK-MEL-2 melanoma; 19.8 µM in the test with MOLT-4 leukemia; 19 µM with U251 CNS; 16.7 µM with 786-0 renal. For the same compound, the TGI is 38.5 µM with OVCAR-5 ovarian; above 100 µM with K-562 leukemia; 21.6 µM in the test with BT-549 breast; 41 µM in the test with SNB-19 CNS; 2.35 µM in the test with NCI-H522 lung; 12.9 µM with PC-3 prostate.
Consider `O=c1c2c(c1=O)-c1ccccc1CN2`, for which the TGI in the test with HCT-116 colon, in the test on HCT-15 colon, in the test with NCI-H226 lung, in the test on CAKI-1 renal, with TK-10 renal and in the test on SF-268 CNS was above 100 µM throughout. The TGI in the test on SK-MEL-2 melanoma, in the test on MOLT-4 leukemia, in the test on U251 CNS, with 786-0 renal, in the test on OVCAR-5 ovarian and with K-562 leukemia was above 100 µM each time. The TGI with SNB-19 CNS and with NCI-H522 lung was above 100 µM in each case.
In the case of `COC(=O)C1C=CCON2CCc3c(n(S(=O)(=O)c4ccccc4)c4ccccc34)C12` (configuration not stated), the TGI in the test with HCT-116 colon was above 80.7 µM; with SF-295 CNS it was above 100 µM; in the test with HCT-15 colon it was above 72.9 µM; with NCI-H226 lung it was above 91.1 µM; in the test on CAKI-1 renal, 98.7 µM; in the test with TK-10 renal it was above 100 µM. For the same compound, the TGI in the test with SF-268 CNS is above 100 µM; with SK-MEL-2 melanoma, above 100 µM; in the test with MOLT-4 leukemia, above 71 µM; with U251 CNS, above 42.1 µM; in the test on 786-0 renal, above 100 µM; with OVCAR-5 ovarian it was above 100 µM. In addition, the figures for the TGI with K-562 leukemia, in the test on SNB-19 CNS and in the test on NCI-H522 lung were above 60.9 µM, above 77.7 µM and above 62.5 µM, respectively.
As for `c1ccc([P+](CCCCCC[P+](c2ccccc2)(c2ccccc2)c2ccccc2)(c2ccccc2)c2ccccc2)cc1`, the TGI in the test on HCT-116 colon, in the test with SF-295 CNS, in the test with HCT-15 colon, with NCI-H226 lung, with CAKI-1 renal and in the test on MDA-MB-231 breast was above 100 µM each time. Further, the TGI with TK-10 renal was above 100 µM; in the test on SF-268 CNS, above 100 µM; with MOLT-4 leukemia, above 100 µM; in the test on U251 CNS it was above 100 µM; with MDA-MB-435 it was 72.9 µM; in the test with 786-0 renal it was above 100 µM. Further, the TGI in the test on OVCAR-5 ovarian, with K-562 leukemia, with SNB-19 CNS, with NCI-H522 lung and in the test with PC-3 prostate was above 100 µM in each case.
